Source: patent US20250011330A1, “Imidazo[1,2- a]pyrazine and Imidazo[1,2- a]pyridine Based Tyrosyl-DNA Phosphodiesterase I (TDP1) Inhibitors” (The USA, As Represented by the Secretary, Department of …, priority 2021, published 2025)
Read-outs that look alike come from different tables or passages of the source.

Experiments:
TDP2 [1] = molecular target: T1, TDP2 (Homo sapiens (Human), UniProt O95551); test: gel-based TDP2 fluorescence assay in vitro; type: biochemical; settings: read-out: TDP2 IC50
TDP1 [2] = molecular target: T2, TDP1 (Homo sapiens (Human), UniProt Q9NUW8); test: TDP1 gel-based in vitro fluorescence assay; type: biochemical; settings: for FC (fold change): Table 8, ratio of IC50 TDP2 to TDP1
[3] = molecular target: whole cell extract (WCE) human TDP1 (Homo sapiens (Human), UniProt Q9NUW8); test: gel based whole cell extract (WCE) human TDP1 fluorescence assay; type: biochemical; settings: read-out: WCE hTDP1 IC50
[4] = tested on: human colon cancer cell line HCT116; test: Synergistic effect with camptothecin (CPT) based on cell viability; settings: for synergy with camptothecin: list in description; for Synergy Score: with camptothecin (CPT), HCT116, 72 h, SynergyFinder 2.0
Procedure: The synergistic effects of the TDP1 inhibitors with CPT were tested in human colon cancer cell line HCT116 based on cell viability (Table 3, FIGS. 2-5). Cells were first seeded in a 384-well black-clear plate until 30% confluency and then incubated with a serial dilution of CPT at the range of 0-100 nM in the present or the absence of TDP1 inhibitors for 72 h at 37° C. Viable cell numbers were counted from the brightfield images taken by Biotek Cytation 5 (FIGS. 2-3). Fractional affect (Fa) and combination index (Ci) were analyzed with CompuSyn software. Synergistic scores of each TDP1 inhibitors were calculated and collected based on the data analysis from SynergyFinder (FIG. 4). […]

TDP1 [5] = molecular target: T2, TDP1; test: Lineweaver-Burk plot analysis of TDP1 inhibition; type: biochemical
Procedure: Samples were then analyzed with a 20% DNA sequencing gel and exposed to a PhosphorImager screen for further analysis by Typhoon FLA 9500 (GE Healthcare). The Linearweaver-Burk plots (FIG. 1) were generated based on the substrate concentrations and corresponding reaction velocities.

TOP1 = TOP1 (Homo sapiens (Human), UniProt P11387); test: Degradation of TOP1 in cells (western blotting); type: cell-based; settings: list in description
TDP1 [6] = molecular target: T2, TDP1; test: Degradation assay (western blotting) of TDP1 in HCT116 and HEK293 cells; type: cell-based; settings: list in description
Procedure: The degradation effect of the TDP1 inhibitors on TDP1 in human colon cancer cell line HCT116 and embryonic kidney cell line HEK293 were studied. Cells were first seeded in a 6-well plate until 60-80% confluency and then incubated with a serial dilution of TDP1 inhibitors at the range of 25-200 μM for 24-72 h at 37° C. […] Samples were then sonicated at 30% for 10 s and centrifuged for 15 min at 15000 rpm at 4 Celsius. Supernatant were collected and the concentration of total protein were measured by BCA Protein Assay Kit according to its protocols. Four micrograms of total protein for each sample were loaded and TDP1 level were conducted by western blotting.

TDP2 [7] = molecular target: T1, TDP2; test: TDP2 degrading activity as stated in the description; settings: list in description
[8] = Table 3, gel based TDP1 fluorescence assay, read-out: TDP1 IC50
[9] = Table 3, values in brackets (footnote vi), read-out: TDP1 IC50 (μM), separated data from previous experiments
[10] = Table 8, lead compounds with different linkers
[11] = Table 8, lead compounds with different linkers, read-out: TDP1 IC50

T1 sequence (O95551 whole entry, species assumed): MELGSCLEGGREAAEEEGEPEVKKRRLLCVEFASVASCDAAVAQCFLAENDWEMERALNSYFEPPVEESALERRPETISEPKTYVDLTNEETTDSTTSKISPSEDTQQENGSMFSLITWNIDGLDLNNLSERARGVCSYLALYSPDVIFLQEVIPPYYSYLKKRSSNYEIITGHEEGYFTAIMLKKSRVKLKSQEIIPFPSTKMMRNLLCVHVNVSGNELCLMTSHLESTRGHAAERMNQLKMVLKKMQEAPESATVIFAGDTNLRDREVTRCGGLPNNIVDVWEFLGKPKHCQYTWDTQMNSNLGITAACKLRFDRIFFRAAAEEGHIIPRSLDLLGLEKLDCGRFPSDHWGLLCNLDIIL
T2 sequence (Q9NUW8 whole entry): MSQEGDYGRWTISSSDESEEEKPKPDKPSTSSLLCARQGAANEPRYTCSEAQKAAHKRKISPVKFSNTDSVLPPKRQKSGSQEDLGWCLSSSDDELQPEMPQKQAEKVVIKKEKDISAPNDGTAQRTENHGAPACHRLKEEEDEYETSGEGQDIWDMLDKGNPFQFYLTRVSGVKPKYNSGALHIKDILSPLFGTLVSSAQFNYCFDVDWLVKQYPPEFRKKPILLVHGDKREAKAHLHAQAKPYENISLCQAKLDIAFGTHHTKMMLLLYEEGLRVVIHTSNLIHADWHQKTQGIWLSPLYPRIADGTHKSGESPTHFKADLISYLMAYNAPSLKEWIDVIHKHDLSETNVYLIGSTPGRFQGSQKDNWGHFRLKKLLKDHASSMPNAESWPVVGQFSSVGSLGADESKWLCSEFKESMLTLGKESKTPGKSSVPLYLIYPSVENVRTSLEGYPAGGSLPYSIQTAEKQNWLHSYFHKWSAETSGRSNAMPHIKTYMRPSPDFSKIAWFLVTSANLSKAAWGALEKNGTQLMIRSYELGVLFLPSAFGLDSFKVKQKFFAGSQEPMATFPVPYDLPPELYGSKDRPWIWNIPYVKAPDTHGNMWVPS
Sequence of whole cell extract (WCE) human TDP1 (Q9NUW8 whole entry): as above

Row | SMILES | IC50 (TDP2 [1]; Table 3) | IC50 (TDP1 [2]; Table 1, imidazo[1,2-a]pyridin-3-amines, read-out: IC50) | IC50 (TDP1 [2]; [8]) | IC50 (TDP1 [2]; [9]) | TDP1 Selectivity (TDP1 [2]; ratio of IC50 values of TDP1/TDP2) | IC50 [3] | synergy with camptothecin [4] | Synergy Score [4] | IC50 (TDP1 [2]; Table 2, imidazo[1,2-a]pyrazin-3-amine core, read-out: IC50) | Ki (TDP1 [5]; FIG. 1 legend, Lineweaver-Burk analysis, read-out: Inhibitory constant Ki) | Ki (TDP1 [5]; Table 3, constant of inhibition (FIG. 1), read-out: Ki) | TOP1 degrading activity (TOP1) | IC50 (TDP2 [1]; [10]) | IC50 (TDP1 [2]; [11]) | FC (fold change) (TDP1 [2]) | TDP1 degrading activity (TDP1 [6]) | TDP2 degrading activity (TDP2 [7])
1 | O=C(O)c1ccc(Nc2c(-c3ccc(-c4ccccc4)cc3)nc3ccc(C(=O)O)cn23)cc1 [Compound 8n, 2-([1,1′-Biphenyl]-4-yl)-3-((4-carboxyphenyl)amino)imidazo[1,2-a]pyridine-6-carboxylic acid] | > 100 µM | 1.5 µM | 2.94 ± 0.47 µM | 1.5 µM | >34 | > 100 µM | exhibit synergy with camptothecin | 11.3 |  |  |  |  |  |  |  |  | 
2 | O=C(O)c1ccc(Nc2c(-c3ccccc3)nc3cnccn23)cc1C(=O)O [Compound 10a, 4-((2-Phenylimidazo[1,2-a]pyrazin-3-yl)amino)phthalic acid] | > 100 µM |  | > 100 µM | 45.5 µM |  |  |  | 4 | 45.5 µM | 110 ± 30.9 µM | 110 ± 30.9 µM |  |  |  |  |  | 
3 | N#Cc1ccc(-c2ccc(Cn3cc(-c4ccc(-c5nc6cc(-c7ccccc7)ccn6c5Nc5ccc(C(=O)O)cc5)cc4)nn3)cc2)nc1 [XZ718, 4-((2-(4-(1-(4-(5-Cyanopyridin-2-yl)benzyl)-1H-1,2,3-triazol-4-yl)phenyl)-7-phenylimidazo[1,2-a]pyridin-3-yl)amino)benzoic acid] |  |  |  |  |  |  | exhibit synergy with camptothecin |  |  |  |  | exhibit TOP1 degrading activity | 25.9 ± 0.4 µM | 3.1 ± 0.2 µM | 8 | exhibit TDP1 degrading activity | exhibit TDP2 degrading activity
4 | N#Cc1ccc(-c2ccc(Cn3cc(COc4ccc(-c5nc6cc(-c7ccccc7)ccn6c5Nc5ccc(C(=O)O)cc5)cc4)nn3)cc2)nc1 [XZ720, 4-((2-(4-((1-(4-(5-Cyanopyridin-2-yl)benzyl)-1H-1,2,3-triazol-4-yl)methoxy)phenyl)-7-phenylimidazo[1,2-a]pyridin-3-yl)amino)benzoic acid] |  |  |  |  |  |  | exhibit synergy with camptothecin |  |  |  |  | exhibit TOP1 degrading activity | 32.9 ± 2.7 µM | 23.5 ± 3.2 µM | 1 | exhibit TDP1 degrading activity | exhibit TDP2 degrading activity
